# Where two headings read alike, the source gives them in different places.
# Columns and labels:
# [1] = system: phenylbenzoquinone (PBQ); assay: Analgesic activity using phenylbenzoquinone (PBQ) as noxious agent, Table 2; format: in vivo, male Swiss mouse; conditions: Mus musculus; for inhibition in vivo at 100 mg/kg: read-out: % of analgesic activity, 100 mg/kg, male Swiss mouse, PBQ; for inhibition in vivo at 200 mg/kg: read-out: % of analgesic activity, 200 mg/kg, male Swiss mouse, PBQ
# Method: The analgesic activity was determined with the male Swiss mouse using phenylbenzoquinone (PBQ) (a variation of the method of Siegmund et al, Proc. Soc. Exp. Med., […], 95, 729-31) as the noxious agent. Twenty-eightminutes after having administered the test products in a suspension in a 6% gum base, the PBQ solution was injected. The mice were then observed ca. 5 mn. for the next five minutes.
# % of analgesic activity as a function of
# the dose expressed in mg/kg
# [2] = system: salivation induced by pilocarpine; assay: Inhibition of salivation induced by pilocarpine (anticholinergic activity), Table 9; format: in vivo; conditions: oral
# From the text: (§1) The psychotropic profile of the present invention products has been characterized with the animals in numerous tests some of whose results are shown hereinafter. The products of the invention were always administered orally in 6% gum base.
# Certain products manifest an anticholinergic activity evidenced in the inhibition test of salivation induced by pilocarpine (Table 9).
# % of inhibition of salivation induced by
# pilocarpine as a function of the dose
# (§2) administered expressed in mg/kg
# [3] = system: trembling induced by oxotremorine; assay: Antagonism of trembling induced by oxotremorine, Table 7; format: in vivo; conditions: read-out: % of inhibition of trembling induced by oxotremorine
# From the text: as §1
# (§3) Certain tests made it possible to show antidepressive activities. These are tests of antagonism to the effects of reserpine, oxotremorine (according to Everett G. M. et al, Science, 1956, 124, 79 and Levy J. et al, Therapie 1965, 20, 265) and to despair (according to Porsolt P. D. et al, Eur. J. Pharmacol., 1978, 47, 379-91).
# % of inhibition of trembling induced by
# oxotremorine as a function of the dose
# as §2
# [4] = Oral toxicity (mortality) in the mouse, Table 1; format: in vivo; conditions: mouse, in vivo, po, Swiss mice, 14 days
# Method: The mortality percentages caused by the products of the present invention administered orally to Swiss mice are shown in Table 1. The animals, free of specific pathological organism were housed in an air conditioned room from 24 to 48 hours before the start of the experiments. They were divided up into lots of 5 males and 5 females. With the animals unfed for 24 hours, the substances were administered intragastrically in a base of 6% gum arabic in a volume equal to 0.1 ml for 10 g of animal weight. The mortality was recorded at 14 days.
# % of mortality as a function of the dose
# [5] = system: ptosis induced by reserpine; assay: Antagonism of ptosis induced by reserpine, Table 6; format: in vivo; conditions: read-out: % of inhibition of ptosis induced by reserpine
# From the text: as §1, §3
# % of inhibition of ptosis induced by reserpine
# as a function of the dose administered orally
# [6] = system: stereotype induced by apomorphine; assay: Antagonism of the stereotype induced by apomorphine, Table 4; format: in vivo; conditions: for % of activity vis-a-vis the stereotype induced by apomorphine: oral; for antagonism vis-a-vis the stereotype with apomorphine: in words
# From the text: as §1
# % of activity vis-a-vis the stereotype
# induced by apomorphine as a function of the
# administered dose expressed in mg/kg
# [7] = system: number of escapes the animal made in 5 minutes; assay: Escape test, Table 3; format: in vivo, mouse; conditions: 5 min, read-out: % of activity (variation of the number of escapes)
# From the text: The products of the invention were always administered orally in 6% gum base.
# The notation NS signifies that the difference between the results noted for the product and the results noted for the excipient alone is not significant at the threshold 0.05 according to the Student t Test.
# [8] = system: number of displacements of the animal; assay: Four plates test (anxiolytic activity), Table 5; format: in vivo; conditions: oral, mouse
# From the text: as §1
# A certain number of products manifest an anxiolytic activity evidenced in the test with the four plates with the mouse (Table 5).
# % of increase in the number of displacements of the
# animal as a function of the dose expressed in mg/kg
# [9] = system: despair; assay: Test of despair (Porsolt), Table 8; format: in vivo; conditions: oral
# From the text: as §1, §3
# Test of despair: % of antagonism as a function
# of the dose administered orally and expressed
smiles,measurement,setting,value
CN(C)CCc1cc2c(cc1N=Cc1ccc[n+]([O-])c1)OCO2 [COR 01 203],inhibition in vivo at 50 mg/kg,"[1]; read-out: % of analgesic activity, 50 mg/kg, male Swiss mouse, PBQ",0%
same,inhibition in vivo at 100 mg/kg,[1],36%
same,inhibition in vivo at 200 mg/kg,[1],47%
same,% of inhibition of salivation induced by pilocarpine,[2]; 50 mg/kg,-32%
same,% of inhibition of salivation induced by pilocarpine,[2]; 200 mg/kg,-30%
same,change in vivo at 50 mg/kg,[3]; po,-70%
same,change in vivo at 100 mg/kg,[3]; po,-50%
same,change in vivo at 200 mg/kg,[3]; po,-20%
same,mortality at 336 h,[4]; 1000 mg/kg,0%
same,mortality at 336 h,[4]; 1500 mg/kg,10%
same,mortality at 336 h,[4]; 2000 mg/kg,40%
same,change in vivo at 100 mg/kg,[5]; po,-33%
same,change in vivo at 200 mg/kg,[5]; po,-27%
COc1ccc(C=Nc2cc3c(cc2CCN(C)C)OCO3)cc1 [COR 01 210],inhibition in vivo at 100 mg/kg,[1],27%
same,inhibition in vivo at 200 mg/kg,[1],33%
same,% of activity vis-a-vis the stereotype induced by apomorphine,[6]; 75 mg/kg,-33%
same,% of activity vis-a-vis the stereotype induced by apomorphine,[6]; 150 mg/kg,-33%
same,antagonism vis-a-vis the stereotype with apomorphine,[6],manifest an antagonism
same,change in vivo at 100 mg/kg,"[7]; Mus musculus, po",-20%
same,change in vivo at 150 mg/kg,"[7]; Mus musculus, po",-26%
same,change in vivo at 200 mg/kg,"[7]; Mus musculus, po",-72%
same,change in vivo at 50 mg/kg,[3]; po,-50%
same,change in vivo at 75 mg/kg,[3]; po,-40%
same,change in vivo at 100 mg/kg,[3]; po,-50%
same,change in vivo at 150 mg/kg,[3]; po,-30%
same,change in vivo at 200 mg/kg,[3]; po,-50%
same,mortality at 336 h,[4]; 750 mg/kg,0%
same,mortality at 336 h,[4]; 1000 mg/kg,10%
same,mortality at 336 h,[4]; 2000 mg/kg,20%
same,change in vivo at 50 mg/kg,[5]; po,-21%
same,change in vivo at 100 mg/kg,[5]; po,-38%
C(=Nc1cc2c(cc1CCN1CCCC1)OCO2)c1cccnc1 [COR 01 173],% of increase in the number of displacements of the animal,[8]; 10 mg/kg,+30%
same,% of increase in the number of displacements of the animal,[8]; 20 mg/kg,+47%
same,% of increase in the number of displacements of the animal,[8]; 50 mg/kg,+60%
same,% of increase in the number of displacements of the animal,[8]; 75 mg/kg,+82%
same,% of inhibition of salivation induced by pilocarpine,[2]; 75 mg/kg,-39%
same,% of inhibition of salivation induced by pilocarpine,[2]; 100 mg/kg,-48%
same,% of inhibition of salivation induced by pilocarpine,[2]; 200 mg/kg,-76%
same,change in vivo at 5 mg/kg,"[7]; 5 mg/kg, oral, mouse, 5 minutes",-33%
same,change in vivo at 25 mg/kg,"[7]; 25 mg/kg, oral, mouse, 5 minutes",-13%
same,change in vivo at 50 mg/kg,"[7]; 50 mg/kg, oral, mouse, 5 minutes",-29%
same,change in vivo at 75 mg/kg,"[7]; 75 mg/kg, oral, mouse, 5 minutes",-26%
same,change in vivo at 100 mg/kg,"[7]; 100 mg/kg, oral, mouse, 5 minutes",-50%
same,change in vivo at 150 mg/kg,"[7]; 150 mg/kg, oral, mouse, 5 minutes",-55%
same,change in vivo at 200 mg/kg,"[7]; 200 mg/kg, oral, mouse, 5 minutes",-90%
same,change in vivo at 25 mg/kg,"[3]; 25 mg/kg, oral",-20%
same,change in vivo at 50 mg/kg,"[3]; 50 mg/kg, oral",-20%
same,change in vivo at 75 mg/kg,"[3]; 75 mg/kg, oral",-40%
same,change in vivo at 100 mg/kg,"[3]; 100 mg/kg, oral",-60%
same,change in vivo at 150 mg/kg,"[3]; 150 mg/kg, oral",-70%
same,mortality at 336 h,[4]; 500 mg/kg,0%
same,mortality at 336 h,[4]; 1000 mg/kg,30%
same,change in vivo at 50 mg/kg,"[5]; 50 mg/kg, oral",-12%
same,change in vivo at 75 mg/kg,"[5]; 75 mg/kg, oral",-21%
same,change in vivo at 100 mg/kg,"[5]; 100 mg/kg, oral",-23%
same,Test of despair: % of antagonism,[9]; 50 mg/kg,-18%
same,Test of despair: % of antagonism,[9]; 100 mg/kg,-41%
same,Test of despair: % of antagonism,[9]; 200 mg/kg,-53%
Cc1ccc(C=Nc2cc3c(cc2CCN(C)C)OCO3)cc1 [COR 01 206],% of activity vis-a-vis the stereotype induced by apomorphine,[6]; 50 mg/kg,-53%
same,% of activity vis-a-vis the stereotype induced by apomorphine,[6]; 100 mg/kg,-71%
same,% of activity vis-a-vis the stereotype induced by apomorphine,[6]; 200 mg/kg,-22%
same,antagonism vis-a-vis the stereotype with apomorphine,[6],manifest an antagonism
same,change in vivo at 25 mg/kg,"[7]; Mus musculus, po",-18%
same,change in vivo at 50 mg/kg,"[7]; Mus musculus, po",-28%
same,change in vivo at 100 mg/kg,"[7]; Mus musculus, po",-63%
same,mortality at 336 h,[4]; 1500 mg/kg,0%
same,mortality at 336 h,[4]; 2000 mg/kg,50%

# — US4333930A, “Orthoarylideneaminophenethylamines and pharmaceutical compositions” (priority 1980, dated 1982)
